This is an account of results in paper PMC5403950, “Mechanism Underlying the Reversal of Drug Resistance in P-Glycoprotein-Expressing Leukemia Cells by Pinoresinol and the Study of a Derivative” (Frontiers in Pharmacology, 2017).

The target in series [1] is T1, P-gp (Homo sapiens, UniProt P08183). To be noted: Lucena 1; 1 h pre-incubation, 5 μM DOX 1 h.
In another series the test system is Lucena 1 cells. Nature of the series: Multidrug resistance reversal assay (MTT) with DOX. The format is cell-based, human. The procedure:
(§1) Briefly, 5 × 10^4 Lucena 1 cells per well were seeded in 96-well plates containing RPMI-1640 medium in the presence of DOX alone or in combination with the tested compounds dissolved in ethanol or acetonitrile as appropriate. DOX was added to reach final concentrations of 0.05–431 μM. The compounds were assayed at the highest non-toxic concentration observed in both cell lines (cytotoxicity ≤ 20%, Cytotoxicity (%) = [1-(Optical density treatment-Optical density DMSO)/(Optical density control-Optical density DMSO)] x 100, determined by MTT proliferation assay (Joray et al., [2015]); maximum concentration tested 40 μg mL^−1). Following the primary screening, compounds 14 and 16 (dissolved in ethanol) were tested at serial dilutions. […] Subsequently, the supernatants were removed and replaced with 100 μL DMSO to solubilize the resulting purple formazan crystals produced from metabolically viable cells. Absorbance was measured with an iMark micro-plate reader (Bio-Rad, USA) at 595 nm.
(§2) The same reversal assay was performed in K562 cells, in order to discard a decrease in the IC50 of DOX due to effects other than P-gp inhibition. The reversal fold (RF) values for the tested compounds, which indicate their capacity to reduce resistance to DOX, were calculated by dividing the IC50 of DOX alone by the IC50 of DOX in the presence of the tested compounds (Xu et al., [2014]).

For series [2], the target named is T1, P-gp. As to the kind of experiment: in vitro. To be noted: Lucena 1 cells, probe doxorubicin (DOX) 5 μM.
Series [3] deals with K562 cells. Nature of the series: Multidrug resistance reversal assay (MTT) with DOX, sensitive parental line. It counts as cell-based, human. The following applies: compound at 14 μM. The method, then:
as §1, §2

The nature of series [4]: Cytotoxicity on peripheral blood mononuclear cells (MTT). The format is cell-based, human. To be noted: human, peripheral blood mononuclear cells (PBMC), PHA 10 μg mL−1, confidence limits in brackets. The procedure: (§3) The cytotoxicity of 14 and 16 on peripheral blood mononuclear cells (PBMC) was evaluated by MTT assay (Joray et al., [2015]). PBMC were collected from fresh heparinized blood and separated by density gradient centrifugation (Ficoll®) as described by Rennó et al. ([2008]). As the current study required samples from healthy human volunteer donors, ethical approval was provided by the Catholic University of Córdoba Research Ethics Board. Signed informed consents were obtained from donors. […] Absorbance (Abs) and percentage of cytotoxicity were determined as described above and the IC50 values were calculated. The experiment was carried out in two separate stages.

In series [5] the test system is peripheral blood mononuclear cells (PBMC). The series is described as above. The format is cell-based, human. To be noted: PHA 10 μg mL−1, 48 h, confidence limits in brackets. The procedure:
as §3

Series [6] relates to K562 cells. As to the kind of experiment: Doxorubicin intracellular accumulation assay (flow cytometry), K562. It counts as cell-based, human. The following applies: up to the maximum concentration evaluated. From the text:
[…]. […] Viability controls were included in all the experiments.
A general note: Flow cytometry measures light scatter and fluorescence of single cells or particles in a stream.

T1 sequence (P08183 whole entry): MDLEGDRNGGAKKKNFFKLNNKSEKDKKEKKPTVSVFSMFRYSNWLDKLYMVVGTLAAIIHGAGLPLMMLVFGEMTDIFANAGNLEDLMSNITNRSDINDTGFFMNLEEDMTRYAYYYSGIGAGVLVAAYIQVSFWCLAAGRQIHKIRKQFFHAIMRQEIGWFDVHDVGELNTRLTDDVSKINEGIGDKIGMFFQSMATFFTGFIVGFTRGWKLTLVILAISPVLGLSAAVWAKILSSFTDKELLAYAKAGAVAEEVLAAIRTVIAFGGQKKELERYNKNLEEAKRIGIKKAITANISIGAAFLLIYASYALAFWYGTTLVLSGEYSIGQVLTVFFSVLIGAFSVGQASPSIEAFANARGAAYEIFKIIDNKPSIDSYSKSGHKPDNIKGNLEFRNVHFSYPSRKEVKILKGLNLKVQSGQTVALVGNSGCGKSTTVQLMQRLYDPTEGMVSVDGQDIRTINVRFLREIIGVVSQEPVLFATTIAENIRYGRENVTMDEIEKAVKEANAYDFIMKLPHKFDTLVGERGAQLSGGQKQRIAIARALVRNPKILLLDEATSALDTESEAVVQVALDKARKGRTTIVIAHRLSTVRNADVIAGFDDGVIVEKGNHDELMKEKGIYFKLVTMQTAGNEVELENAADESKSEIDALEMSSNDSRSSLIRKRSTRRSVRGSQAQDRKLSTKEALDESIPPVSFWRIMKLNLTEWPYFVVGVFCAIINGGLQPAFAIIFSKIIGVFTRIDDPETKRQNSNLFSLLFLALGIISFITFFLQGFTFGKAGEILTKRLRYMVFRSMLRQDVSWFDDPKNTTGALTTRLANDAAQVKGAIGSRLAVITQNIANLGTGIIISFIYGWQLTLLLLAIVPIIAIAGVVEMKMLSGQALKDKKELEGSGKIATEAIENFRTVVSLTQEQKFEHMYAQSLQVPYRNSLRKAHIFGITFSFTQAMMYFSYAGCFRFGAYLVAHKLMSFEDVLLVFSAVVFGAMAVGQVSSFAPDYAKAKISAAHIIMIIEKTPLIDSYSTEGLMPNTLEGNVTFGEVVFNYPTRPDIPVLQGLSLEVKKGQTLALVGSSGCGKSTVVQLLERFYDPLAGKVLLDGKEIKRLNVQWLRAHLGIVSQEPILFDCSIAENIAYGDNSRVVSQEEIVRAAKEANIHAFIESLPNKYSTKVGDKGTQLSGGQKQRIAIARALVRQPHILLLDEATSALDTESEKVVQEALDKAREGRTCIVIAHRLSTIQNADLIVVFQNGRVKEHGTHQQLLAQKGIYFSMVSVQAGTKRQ

What is called IC50 is the point on the concentration scale where inhibition reaches its midpoint. High values mean a need for much substance, low ones inhibition by little substance. Consider `COc1cc([C@H]2OC[C@]3(OC(C)=O)[C@@H](c4ccc(O)c(OC)c4)OC[C@H]23)ccc1O` [Compound 16, 1-acetoxy-(+)-pinoresinol], for which the “Minimum effective concentration (MEC) in the DOX accumulation assay” value at P-gp [1] stood at 0.87 µM. Also, the “Minimum effective concentration (MEC) in the reversal assay (potentiation of DOX toxicity from)” value in the series on Lucena 1 cells (Lucena 1, DOX) came out at 0.11 µM. Further, the “RF Lucena 1” value in the series on Lucena 1 cells (compound at 0.11 μM, DOX) turned out to be 1.4. In the series with Lucena 1 cells (compound at 14 μM, DOX), the “RF Lucena 1” value is 22.7. Also, the “Effectiveness of 16 relative to 14 according to the MECs” value with Lucena 1 cells (reversal and accumulation assays) came out at 64 times. Also, on P-gp [2], the activity at 0.87 µM was 62% and the activity at 14 µM is 141%. The “Effect on DOX activity in K562” value in the series on K562 cells [3] is recorded as “no potentiation”. In the series on K562 cells [3] (DOX), the “RF K562” value is 1.05 ± 0.14. The half-maximal inhibitory concentration (IC50) at 48 h in series [4] stood at 103 µM. Also, in series [5], the IC50 was 103 µM. In addition, in the series with K562 cells [6], the “DOX accumulation in K562” value was “no increase in DOX accumulation”.
